The values below come from patent publication US20090005364A1, “Azole Derivatives With Antimuscarinic Activity” (priority 2004, published 2009).

T2 sequence (P20309 whole entry): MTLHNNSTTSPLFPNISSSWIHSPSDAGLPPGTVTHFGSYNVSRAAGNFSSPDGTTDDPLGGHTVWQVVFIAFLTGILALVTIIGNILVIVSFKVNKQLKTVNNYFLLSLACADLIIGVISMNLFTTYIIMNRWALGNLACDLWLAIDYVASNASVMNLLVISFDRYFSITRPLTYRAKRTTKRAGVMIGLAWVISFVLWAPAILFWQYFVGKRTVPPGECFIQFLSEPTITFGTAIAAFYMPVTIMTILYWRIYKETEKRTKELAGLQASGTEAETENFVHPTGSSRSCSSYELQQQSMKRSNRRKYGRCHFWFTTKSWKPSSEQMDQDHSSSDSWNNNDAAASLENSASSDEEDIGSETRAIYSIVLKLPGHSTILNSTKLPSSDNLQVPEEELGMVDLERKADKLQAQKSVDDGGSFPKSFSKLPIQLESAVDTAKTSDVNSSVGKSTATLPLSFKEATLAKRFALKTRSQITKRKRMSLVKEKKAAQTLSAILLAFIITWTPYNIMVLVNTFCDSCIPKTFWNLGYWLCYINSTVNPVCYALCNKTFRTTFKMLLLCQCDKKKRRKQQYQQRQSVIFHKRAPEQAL

The first assay addresses T1, human M2-receptors (Homo sapiens, UniProt P08172).
T1 construct: expressed in transfected cells; host or cells: CHO-K1 clone cells; crude membrane fraction
T1 sequence (P08172 1-466): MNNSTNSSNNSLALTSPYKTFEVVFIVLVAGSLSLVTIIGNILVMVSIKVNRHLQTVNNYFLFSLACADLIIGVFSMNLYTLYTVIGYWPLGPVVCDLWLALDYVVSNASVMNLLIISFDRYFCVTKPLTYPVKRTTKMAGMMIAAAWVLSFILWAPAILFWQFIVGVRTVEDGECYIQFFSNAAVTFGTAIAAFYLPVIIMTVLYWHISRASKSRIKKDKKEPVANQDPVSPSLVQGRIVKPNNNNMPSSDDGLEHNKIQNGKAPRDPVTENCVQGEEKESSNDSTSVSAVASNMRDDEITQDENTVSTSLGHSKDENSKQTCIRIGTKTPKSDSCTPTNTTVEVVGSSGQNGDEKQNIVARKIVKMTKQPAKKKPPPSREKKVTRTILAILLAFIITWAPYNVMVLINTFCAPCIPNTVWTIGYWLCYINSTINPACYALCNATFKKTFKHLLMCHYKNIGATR
The experiment in a line: radioligand binding assay, M2 receptor ([3H]-N-methyl scopolamine). Conditions: membranes of CHO-K1 cells expressing human M2; [3H]-N-methyl scopolamine 0.1-0.3 nM; 60 min, room temperature. On the procedure: (§1) Cell Lines and Membrane Preparations
(§2) CHO—K1 clone cells expressing the human M1, M2 or M3-receptors (Swissprot P11229, P08172, P20309 respectively) were harvested in Ca^++/Mg^++ free phosphate-buffered saline and collected by centrifugation at 1500 rpm for 3 min. The pellets were resuspended in ice cold buffer A (15 mM Tris-HCl pH 7.4, 2 mM MgCl2, 0.3 mM EDTA, 1 mM EGTA) and homogenized by a PBI politron (setting 5 for 15 s).
(§3) Radioligand Binding Conditions
(§4) The day of experiment, frozen membranes were resuspended in buffer C (50 mM Tris-HCl pH 7.4, 2.5 mM MgCl2, 1 mM EDTA). […] The non specific binding was determined in the presence of cold N-methyl scopolamine 10 μM. Samples (final volume 0.75 ml) were incubated at room temperature for 120 min for Ml, 60 min for M2 and 90 min for M3 binding assay. The reaction was terminated by rapid filtration through GF/B Unifilter plates and two washes (0.75 ml) with cold buffer C using a Packard Filtermate Harvester. Radioactivity on the filters was measured by a microplate scintillation counter TopCount NXT (Camberra Packard).
In the case of `O=C1NC(c2ccc(F)cc2)(c2ccc(F)cc2)CN1C1CCN(Cc2ccccc2)CC1` [Compound 27h], affinity was put at a Ki of 206 nM.

Compound `C[N+]1(CC(=O)c2cccs2)CC[C@@H](N2CC(c3ccc(F)cc3)(c3ccc(F)cc3)NC2=O)C1` (some centres unmarked) [Compound 19bp] showed an inhibitory constant (Ki) of 80.9 nM.

Compound `O=C1NC(c2ccccc2)(c2ccccc2)CN1C1CCN(Cc2cccc(Cl)c2)CC1` [Compound 18e] had a Ki of 327 nM.

`Cc1cccc(CN2CCC(N3CC(c4cccs4)(c4cccs4)NC3=O)CC2)c1` [Compound 18ag] showed an inhibitory constant (Ki) of 107 nM.

As for `O=C1NC(c2cccs2)(c2cccs2)CN1C1CCN(Cc2ccccc2)CC1` [Compound 27i], affinity was put at a Ki of 96.8 nM. The Ki values of the last two compounds are within 1.5-fold of each other.

`O=C1NC(c2ccc(F)cc2)(c2ccc(F)cc2)CN1C1CCN(Cc2cccc(F)c2)CC1` [Compound 18an] had a Ki of 1140 nM.

Turning to `O=C1NC(c2ccccc2)(c2ccccc2)CN1C1CCN(Cc2ccccc2)CC1` [Compound 27a, 3-(1-benzyl-piperidin-4-yl)-5 5-diphenyl-imidazolidin-2-one], the Ki came to 80.1 nM. Against the preceding compound, the Ki is about 14-fold lower.

For `O=C1NC(c2cccs2)(c2cccs2)CN1C1CCN(Cc2cccc(F)c2)CC1` [Compound 18ad], the affinity corresponds to a Ki of 187 nM.

As to `Cc1cccc(CN2CCC(N3CC(c4ccccc4)(c4ccccc4)NC3=O)CC2)c1` [Compound 18i], the affinity, expressed as Ki, was 224 nM.

Consider `O=C1NC(c2ccccc2)(C2CCCCC2)CN1C1CCN(Cc2ccccc2)CC1` (centres unmarked) [Compound 27c], for which the Ki turned out to be 73.3 nM.

The compound `O=C1NC(c2ccc(F)cc2)(c2ccc(F)cc2)CN1C1CCN(Cc2cccc(Cl)c2)CC1` [Compound 18ab] had a Ki of 955 nM.

The compound `C[N+]1(CC(=O)c2cccs2)CC[C@@H](N2CC(c3ccc(F)cc3)(c3ccc(F)cc3)NC2=O)C1` (some centres unmarked) [Compound 19bq] came in with a Ki of 88.5 nM.

The next assay has as its target T2, human M3-receptors (Homo sapiens, UniProt P20309).
T2 construct: expressed in transfected cells; host or cells: CHO-K1 clone cells; crude membrane fraction
The experiment in a line: radioligand binding assay, M3 receptor ([3H]-N-methyl scopolamine). Conditions: membranes of CHO-K1 cells expressing human M3; [3H]-N-methyl scopolamine 0.1-0.3 nM; 90 min, room temperature. On the procedure:
as §1, §2, §3, §4
`C[N+]1(CC(=O)c2cccs2)CC[C@@H](N2CC(c3ccc(F)cc3)(c3ccc(F)cc3)NC2=O)C1` (some centres unmarked) [Compound 19bp] showed a Ki of 1.96 nM.

Compound `C[N+]1(CC(=O)c2cccs2)CC[C@@H](N2CC(c3ccc(F)cc3)(c3ccc(F)cc3)NC2=O)C1` (some centres unmarked) [Compound 19bq] yielded an inhibitory constant (Ki) of 1.62 nM.
